Experimental data: patent US8163509B2, “Biological markers predictive of anti-cancer response to insulin-like growth factor-1 receptor kinase inhibitors” (The Regents of the University of Colorado, A Body Corporate, priority 2008, dated 2012)
Read-outs that look alike come from different tables or passages of the source. Each block holds one compound with its values, some of them ahead of it.

How the values were obtained:
Assay in all cases: SRB proliferation assay, 72 h
SK-CO-1 CRC cell line = format: cell-based, human; conditions: for IC50: Homo sapiens
Description: (§1) FIG. 17: Results of cell proliferation assay on the panel of 27 CRC cell lines. Cell proliferation was evaluated by SRB following exposure to OSI-906 for 72 hours. Cells were plated at an optimized density in 96-well plates, incubated overnight at 37° C., and then exposed to a serial dilution of OSI-906. After 72 hours incubation, cells were fixed with trichloroacetic acid and an SRB was performed as described in materials and methods.
(§2) Cell Lines and Culture. […] human colon cancer cell lines, were obtained from American Type Culture Collection (Manassas, Va.). Cells were grown in RPMI medium supplemented with 10% fetal bovine serum, 1% non-essential amino acids, 1% penicillin/streptomycin and were maintained at 37° C. in an incubator under an atmosphere containing 5% CO2. The cells were routinely screened for the presence of mycoplasma (MycoAlert, Cambrex Bio Science, Baltimore, Md.) and were exposed to PQIP when they reached approximately 70% confluence.
(§3) The CRC cell lines were treated with a range of concentrations of PQIP (from 0.05-5 μM) for 72 hours.
(§4) Cell Lines and Culture: Twenty-seven human colon cancer cell lines, were obtained from American Type Culture Collection (Manassas, Va.). The GEO cells were a generous gift from Dr. Fortunato Ciardiello (Cattedra di Oncologia Medica, Dipartimento Medico-Chirurgico di Internistica Clinica e Sperimentale “F Magrassi e A Lanzara,” Seconda Università degli Studi di Napoli, Naples). All cells except GEO were grown in RPMI medium supplemented with 10% fetal bovine serum, 1% non-essential amino acids, 1% penicillin/streptomycin and were maintained at 37° C. in an incubator under an atmosphere containing 5% CO2. GEO cells were grown in DMEM/F12 supplemented with 10% fetal bovine serum, 1% non-essential amino acids, 1% penicillin/streptomycin. The cells were routinely screened for the presence of mycoplasma (MycoAlert, Cambrex Bio Science, Baltimore, Md.) and were exposed to OSI-906 when they reached approximately 70% confluence. OSI-906 was provided by OSI Pharmaceuticals, (Boulder, Colo.) and prepared as a 10 mM stock solution in DMSO.
(§5) Assessment of responsiveness of a panel of CRC cell lines to OSI-906. In order to assess CRC cell lines with differential sensitivity to OSI-906, a panel of 27 CRC cell lines were exposed to increasing concentrations of OSI-906 and proliferation was measured using the SRB assay as described previously (Pitts, T M, et al. Mol Cancer Ther 2009; 8(2):342-9). As depicted in FIG. 17 there was a wide range of sensitivity of the CRC cell lines to OSI-906, the majority of the cell lines failing to reach an IC50 up to 5 μmol/L, but a clear distinction could be made between the cell lines that were sensitive and the cell lines that were resistant.

SW620 CRC cell line = format: cell-based, human; conditions: for IC50: Homo sapiens
Description: as §1, §2, §3, §4, §5

Colo201 CRC cell line = format: cell-based, human; conditions: for IC50: Homo sapiens, COLO 201
Description: as §1, §2, §3, §4, §5

LS174T CRC cell line = format: cell-based; conditions: Homo sapiens
Description: as §1, §2, §3, §4, §5

LS180 CRC cell line = format: cell-based; conditions: Homo sapiens
Description: as §1, §2, §3, §4, §5

SW837 CRC cell line = format: cell-based; conditions: Homo sapiens
Description: as §1, §2, §3, §4, §5

T84 CRC cell line = format: cell-based; conditions: Homo sapiens
Description: as §1, §2, §3, §4, §5

SW1417 CRC cell line = format: cell-based; conditions: Homo sapiens
Description: as §1, §2, §3, §4, §5

SW948 CRC cell line = format: cell-based; conditions: Homo sapiens
Description: as §1, §2, §3, §4, §5

CaCo2 CRC cell line = format: cell-based; conditions: Homo sapiens
Description: as §1, §2, §3, §4, §5

NCI-H508 CRC cell line = format: cell-based; conditions: Homo sapiens
Description: as §1, §2, §3, §4, §5

SW48 CRC cell line = format: cell-based; conditions: Homo sapiens
Description: as §1, §2, §3, §4, §5

HCT15 CRC cell line = format: cell-based; conditions: Homo sapiens
Description: as §1, §2, §3, §4, §5

LS123 CRC cell line = format: cell-based; conditions: Homo sapiens
Description: as §1, §2, §3, §4, §5

SW1116 CRC cell line = format: cell-based; conditions: Homo sapiens
Description: as §1, §2, §3, §4, §5

Colo205 CRC cell line = format: cell-based; conditions: Homo sapiens, COLO 205
Description: as §1, §2, §3, §4, §5

LS1034 CRC cell line = format: cell-based; conditions: Homo sapiens
Description: as §1, §2, §3, §4, §5

LoVo CRC cell line = format: cell-based; conditions: Homo sapiens
Description: as §1, §2, §3, §4, §5

HCT8 CRC cell line = format: cell-based; conditions: Homo sapiens
Description: as §1, §2, §3, §4, §5

SW403 CRC cell line = format: cell-based; conditions: Homo sapiens
Description: as §1, §2, §3, §4, §5

SW1463 CRC cell line = format: cell-based; conditions: Homo sapiens
Description: as §1, §2, §3, §4, §5

[1] = 72 hours, read-out: IC50, proliferation, OSI-906 (SRB)
[2] = 72 hours, 0.05-5 μM, read-out: IC50, growth inhibition by PQIP (SRB)

IC50 (SK-CO-1 CRC cell line; [1]): > 5 µM | IC50 (SK-CO-1 CRC cell line; read-out: S/I/R to OSI-906): > 5 µM | IC50 (SW620 CRC cell line; SW-620, 72 hours, read-out: IC50, proliferation, OSI-906 (SRB)): > 5 µM | IC50 (SW620 CRC cell line; SW-620, read-out: S/I/R to OSI-906): > 5 µM | IC50 (Colo201 CRC cell line; CoLo201, read-out: S/I/R to OSI-906): > 5 µM | IC50 (Colo201 CRC cell line; Colo201, 72 hours, read-out: IC50, proliferation, OSI-906 (SRB)): > 5 µM | IC50 (SW837 CRC cell line; [1]): > 5 µM | IC50 (SW837 CRC cell line; read-out: S/I/R to OSI-906): > 5 µM | IC50 (SW1417 CRC cell line; [1]): > 5 µM | IC50 (SW1417 CRC cell line; read-out: S/I/R to OSI-906): > 5 µM | IC50 (SW948 CRC cell line; [1]): > 5 µM | IC50 (SW948 CRC cell line; read-out: S/I/R to OSI-906): > 5 µM | IC50 (CaCo2 CRC cell line; Caco-2, 72 hours, read-out: IC50, proliferation, OSI-906 (SRB)): ≤ 1500 nM | IC50 (CaCo2 CRC cell line; Caco-2, read-out: S/I/R to OSI-906): ≤ 1500 nM | IC50 (NCI-H508 CRC cell line; [1]): > 5 µM | IC50 (NCI-H508 CRC cell line; read-out: S/I/R to OSI-906): > 5 µM | IC50 (SW48 CRC cell line; [1]): > 5 µM | IC50 (SW48 CRC cell line; read-out: S/I/R to OSI-906): > 5 µM | IC50 (HCT15 CRC cell line; HCT-15, 72 hours, read-out: IC50, proliferation, OSI-906 (SRB)): > 5 µM | IC50 (HCT15 CRC cell line; HCT-15, read-out: S/I/R to OSI-906): > 5 µM | IC50 (SW1116 CRC cell line; SW 1116, 72 hours, read-out: IC50, proliferation, OSI-906 (SRB)): > 5 µM | IC50 (SW1116 CRC cell line; SW 1116, read-out: S/I/R to OSI-906): > 5 µM | IC50 (Colo205 CRC cell line; CoLo205, read-out: S/I/R to OSI-906): ≤ 1500 nM | IC50 (Colo205 CRC cell line; Colo205, 72 hours, read-out: IC50, proliferation, OSI-906 (SRB)): ≤ 1500 nM | IC50 (LoVo CRC cell line; [1]): > 5 µM | IC50 (LoVo CRC cell line; read-out: S/I/R to OSI-906): > 5 µM | IC50 (HCT8 CRC cell line; HCT-8, 72 hours, read-out: IC50, proliferation, OSI-906 (SRB)): > 5 µM | IC50 (HCT8 CRC cell line; HCT-8, read-out: S/I/R to OSI-906): > 5 µM | IC50 (SW403 CRC cell line; SW-403, 72 hours, read-out: IC50, proliferation, OSI-906 (SRB)): > 5 µM | IC50 (SW403 CRC cell line; SW-403, read-out: S/I/R to OSI-906): > 5 µM | IC50 (SW1463 CRC cell line; [1]): > 5 µM | IC50 (SW1463 CRC cell line; read-out: S/I/R to OSI-906): > 5 µM
Structure (SMILES): C[C@]1(O)C[C@@H](c2nc(-c3ccc4ccc(-c5ccccc5)nc4c3)c3c(N)nccn32)C1 [OSI-906, cis-3-[8-amino-1-(2-phenyl-quinolin-7-yl)-imidazo[1,5-a]pyrazin-3-yl]-1-methyl-cyclobutanol]
IC50 (LS174T CRC cell line; [1]): > 5 µM | IC50 (LS174T CRC cell line; read-out: S/I/R to OSI-906): > 5 µM | IC50 (LS180 CRC cell line; [1]): > 5 µM | IC50 (LS180 CRC cell line; read-out: S/I/R to OSI-906): > 5 µM | IC50 (T84 CRC cell line; [1]): > 5 µM | IC50 (T84 CRC cell line; T-84, read-out: S/I/R to OSI-906): > 5 µM | IC50 (LS123 CRC cell line; LS-123, 72 hours, read-out: IC50, proliferation, OSI-906 (SRB)): > 5 µM | IC50 (LS123 CRC cell line; LS-123, read-out: S/I/R to OSI-906): > 5 µM | IC50 (LS1034 CRC cell line; LS-1034, 72 hours, read-out: IC50, proliferation, OSI-906 (SRB)): ≤ 1500 nM | IC50 (LS1034 CRC cell line; LS-1034, read-out: S/I/R to OSI-906): ≤ 1500 nM

IC50 (SW837 CRC cell line; [2]): > 5 µM | IC50 (SW1417 CRC cell line; [2]): > 5 µM | IC50 (SW948 CRC cell line; [2]): > 5 µM | IC50 (CaCo2 CRC cell line; Caco-2, 72 hours, 0.05-5 μM, read-out: IC50, growth inhibition by PQIP (SRB)): > 5000 nM | IC50 (NCI-H508 CRC cell line; [2]): > 5 µM | IC50 (SW48 CRC cell line; [2]): > 5 µM | IC50 (HCT15 CRC cell line; HCT-15, 72 hours, 0.05-5 μM, read-out: IC50, growth inhibition by PQIP (SRB)): > 5 µM | IC50 (SW1116 CRC cell line; SW 1116, 72 hours, 0.05-5 μM, read-out: IC50, growth inhibition by PQIP (SRB)): > 5 µM | IC50 (Colo205 CRC cell line; Colo205, 72 hours, 0.05-5 μM, read-out: IC50, growth inhibition by PQIP (SRB)): < 500 nM | IC50 (LoVo CRC cell line; [2]): > 5 µM | IC50 (HCT8 CRC cell line; HCT-8, 72 hours, 0.05-5 μM, read-out: IC50, growth inhibition by PQIP (SRB)): > 5 µM | IC50 (SW403 CRC cell line; SW-403, 72 hours, 0.05-5 μM, read-out: IC50, growth inhibition by PQIP (SRB)): > 5 µM | IC50 (SW1463 CRC cell line; [2]): > 5 µM
Structure (SMILES): CN1CCN([C@H]2C[C@@H](c3nc(-c4ccc5ccc(-c6ccccc6)nc5c4)c4c(N)nccn43)C2)CC1 [PQIP, cis-3-[3-(4-Methyl-piperazin-1-yl)-cyclobutyl]1-(2-phenyl-quinolin-7-yl)-imidazo[1,5-a]pyrazin-8-ylamine]
sensitivity to growth inhibition by PQIP (SRB) (SK-CO-1 CRC cell line; 72 hours, 0.05-5 μM): intermediate sensitivity | sensitivity to growth inhibition by PQIP (SRB) (SW620 CRC cell line; 72 hours, 0.05-5 μM): intermediate sensitivity | sensitivity to growth inhibition by PQIP (SRB) (Colo201 CRC cell line; Colo201, 72 hours, 0.05-5 μM): intermediate sensitivity | IC50 (LS174T CRC cell line; [2]): > 5 µM | IC50 (LS180 CRC cell line; [2]): > 5 µM | IC50 (T84 CRC cell line; [2]): > 5 µM | IC50 (LS123 CRC cell line; LS-123, 72 hours, 0.05-5 μM, read-out: IC50, growth inhibition by PQIP (SRB)): > 5 µM | IC50 (LS1034 CRC cell line; LS-1034, 72 hours, 0.05-5 μM, read-out: IC50, growth inhibition by PQIP (SRB)): > 5000 nM
